Test results reported in the supplement of paper PMC10307832.

Legend:
Assay in all cases: relative viability (nuclei count vs DMSO), 5 days (fraction); higher = more cells survive
[1] = compound: C1=CC2=C(C=C(C(=C2N=C1)O)N=NC3=CC4=C(C=C3)C=C(C=C4)S(=O)(=O)O)S(=O)(=O)O + CC(C)C[C@H](NC(=O)[C@H](Cc1ccccc1)NC(=O)c1cnccn1)B(O)O [Bortezomib] (partner 0.002 µM)
Summary of the method: (§1)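 Lung cancer cell lines were pin-tool dosed in 1536-well plates on the day after seeding, with either a lone drug or a fixed anchor-drug dose plus five library-drug doses (not always all listed) in √10 steps. Nuclei were counted on 4× images after 5 days. Relative viability is the ratio of treated-well to vehicle-well nuclei counts, with each value a median of duplicate plates.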

AT-7519 + Palbociclib = compound: O=C(NC1CCNCC1)c1n[nH]cc1NC(=O)c1c(Cl)cccc1Cl [AT-7519] + CC(=O)c1c(C)c2cnc(Nc3ccc(N4CCNCC4)cn3)nc2n(C2CCCC2)c1=O [Palbociclib] (partner 0.5 µM)
Summary of the method: as §1

[2] = compound: C1=CC2=C(C=C(C(=C2N=C1)O)N=NC3=CC4=C(C=C3)C=C(C=C4)S(=O)(=O)O)S(=O)(=O)O + C[C@]1(O)C[C@@H](c2nc(-c3ccc4ccc(-c5ccccc5)nc4c3)c3c(N)nccn32)C1 [Linsitinib] (partner 1 µM)
Summary of the method: as §1

AT-7519 + Dasatinib = compound: O=C(NC1CCNCC1)c1n[nH]cc1NC(=O)c1c(Cl)cccc1Cl [AT-7519] + Cc1nc(Nc2ncc(C(=O)Nc3c(C)cccc3Cl)s2)cc(N2CCN(CCO)CC2)n1 [Dasatinib] (partner 0.075 µM)
Summary of the method: as §1

| Cell Line | relative viability ([1]; first compound 0.08 µM) | relative viability ([1]; first compound 0.253 µM) | relative viability ([1]; first compound 0.8 µM) | relative viability ([1]; first compound 2.53 µM) | relative viability ([1]; first compound 8 µM) | relative viability (AT-7519 + Palbociclib; first compound 0.01 µM) | relative viability (AT-7519 + Palbociclib; first compound 0.03162 µM) | relative viability (AT-7519 + Palbociclib; first compound 0.3162 µM) | relative viability (AT-7519 + Palbociclib; first compound 1 µM) | relative viability ([2]; first compound 0.08 µM) | relative viability ([2]; first compound 0.253 µM) | relative viability ([2]; first compound 0.8 µM) | relative viability ([2]; first compound 2.53 µM) | relative viability ([2]; first compound 8 µM) | relative viability (AT-7519 + Dasatinib; first compound 0.01 µM) | relative viability (AT-7519 + Dasatinib; first compound 0.03162 µM) | relative viability (AT-7519 + Dasatinib; first compound 0.3162 µM) | relative viability (AT-7519 + Dasatinib; first compound 1 µM) |
| --- | --- | --- | --- | --- | --- | --- | --- | --- | --- | --- | --- | --- | --- | --- | --- | --- | --- | --- |
| NCI-H1915 | 1.02 | 0.957 | 0.92 | 0.892 | 0.935 | 0.592 | 0.509 | 0.608 | 0.39 | 1.06 | 1.14 | 1.13 | 1.08 | 1.14 | 0.215 | 0.316 | 0.334 | 0.274 |
| NCI-H1975 | 0.389 | 0.385 | 0.377 | 0.327 | 0.42 | 0.51 | 0.599 | 0.362 | 0.176 | 1.02 | 0.913 | 0.92 | 0.918 | 0.908 | 0.341 | 0.341 | 0.384 | 0.127 |
| NCI-H1993 | 1.08 | 1.07 | 1.28 | 1.3 | 0.977 | 0.759 | 0.638 | 0.612 | 0.229 | 0.757 | 0.694 | 0.653 | 0.702 | 0.717 | 0.626 | 0.516 | 0.441 | 0.312 |
| NCI-H2009 | 0.909 | 0.921 | 0.965 | 0.968 | 0.916 | 0.209 | 0.2 | 0.19 | 0.18 | 1.21 | 1.07 | 1.21 | 1.2 | 1.19 | 0.282 | 0.279 | 0.234 | 0.157 |
| NCI-H2023 | 0.945 | 0.945 | 1.01 | 1.15 | 0.978 | 0.393 | 0.401 | 0.243 | 0.0824 | 0.675 | 0.593 | 0.69 | 0.675 | 0.653 | 0.636 | 0.548 | 0.485 | 0.231 |
| NCI-H2085 | 1.23 | 1.05 | 1.01 | 1.11 | 0.953 | 0.454 | 0.503 | 0.515 | 0.608 | 1.06 | 0.927 | 0.978 | 0.821 | 0.892 | 0.219 | 0.242 | 0.256 | 0.218 |
| NCI-H2087 | 0.888 | 0.902 | 0.856 | 0.669 | 0.904 | 0.226 | 0.224 | 0.186 | 0.116 | 1 | 1.12 | 0.82 | 0.964 | 1.15 | 1.14 | 0.938 | 0.732 | 0.108 |
| NCI-H2126 | 1.14 | 1.12 | 1.11 | 1.08 | 1.11 | 0.348 | 0.352 | 0.358 | 0.341 | 0.72 | 0.688 | 0.718 | 0.752 | 0.731 | 0.658 | 0.626 | 0.497 | 0.357 |
